In patent US20220257491A1, “Prebiotic Oral Care Compositions and Methods” (Colgate-Palmolive Company, priority 2021, published 2022):

Test system: S. mitis
Assay: Multi-species biofilm composition: absolute abundance of S. mitis
Type: cell-based
Details: mean±SD n=3
Experimental: Biofilms are grown vertically on Calcium Deficient Hydroxyapatite (CAD-HA) disks (Hitemco Medical, Old Bethpage, USA) using the Amsterdam Active Adhesion model. Biofilms are allowed to establish during 24 h (37° C., 170 rpm) under micro-aerophilic conditions (6% O2, 7% CO2, 7% H2, 80% N2). After this 24 h, disks are rinsed 3 times a day for 3 minutes (RT, 250 rpm), for 3 consecutive days, by transferring the lid containing the disks to a new 24-well plate containing 2 mL/well of the appropriate substrate solution. As a negative control, PBS (pH 5.7) without substrate supplementation is used. After each rinsing step, disks are shortly dip-rinsed in a new 24-well plate containing fresh modified BHI medium (2 mL/well) to remove remaining substrate traces. Subsequently, the lid is transferred to another 24-well plate containing fresh modified BHI medium (2 mL/well), followed by incubation (micro-aerophilic, 37° C., 170 rpm) until the next rinsing step.
NADM, N-acetyl-D-glucosamine (“NADG”) and D-(+)-mannose are selected to determine their effects on multi-species biofilm composition. […] decrease in absolute numbers in at least four of the pathogenic bacterial species tested in the assay, compared to the control, the results of which are described in Table 1 below. Absolute abundances of bacterial species are shown as mean±SD (n=3) logarithmic values of the genome equivalents per millilitre (log(Geq/mL)).

Compound: O=C[C@@H](O)[C@@H](O)[C@H](O)[C@H](O)CO [D-mannose, D-(+)-mannose]
- Absolute abundance S. mitis (substrate 1%(w/v) in PBS): 3.00 ± 0.49 log(Geq/mL)
- Absolute abundance S. mitis (substrate 1 M in PBS): <LOD

Compound: CC(=O)N[C@H]1C(O)O[C@H](CO)[C@@H](O)[C@@H]1O (stereo partly drawn) [NADG, N-acetyl-D-glucosamine, reference compound]
- Absolute abundance S. mitis (substrate 1%(w/v) in PBS): < LOD
- Absolute abundance S. mitis (substrate 1 M in PBS): <LOD

Compound: CC(=O)N[C@@H]1C(O)O[C@H](CO)[C@@H](O)[C@@H]1O (stereo partly drawn) [NADM, N-acetyl-D-mannosamine]
- Absolute abundance S. mitis (substrate 1%(w/v) in PBS): < LOD
- Absolute abundance S. mitis (substrate 1 M in PBS): <LOD
